Values quoted from earlier work, collected in patent US20040142333A1, “Novel secreted proteins and their uses” (priority 2000, published 2004).
Where a SMILES comes first, the peptide text is derived from it. [ ]: non-standard residue; d: D form. The star is where a group is joined. 4Abz = Nc1ccc(C(=O)O)cc1; NHOH = ON*

Tests used:
MMP-1 = target: T1, MMP-1 (Homo sapiens, UniProt P03956); settings: read-out: IC50 against MMP-1
T1 sequence (P03956 100-469): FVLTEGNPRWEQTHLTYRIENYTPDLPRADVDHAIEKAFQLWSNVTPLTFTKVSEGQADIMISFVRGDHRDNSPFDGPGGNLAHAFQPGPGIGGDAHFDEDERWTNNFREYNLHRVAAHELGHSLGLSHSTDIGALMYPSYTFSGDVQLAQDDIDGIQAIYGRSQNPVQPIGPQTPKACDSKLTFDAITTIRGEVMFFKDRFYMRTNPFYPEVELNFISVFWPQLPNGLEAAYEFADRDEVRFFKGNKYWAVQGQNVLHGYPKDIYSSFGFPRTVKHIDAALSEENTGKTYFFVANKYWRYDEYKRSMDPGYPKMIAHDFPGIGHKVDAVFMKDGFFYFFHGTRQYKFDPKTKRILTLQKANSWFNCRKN

MMP-3 = MMP-3 (Homo sapiens, UniProt P08254); settings: read-out: IC50 against MMP-3
MMP-9 = MMP-9 (Homo sapiens, UniProt P14780); settings: read-out: IC50 against MMP-9
MMP-8 = MMP-8 (Homo sapiens, UniProt P22894); settings: read-out: IC50 against MMP-8
M24 cells = settings: murine metastasis model
[1] = system: human metastatic melanoma (M24 cells)

Sequence of MMP-3 (P08254 100-477, species assumed): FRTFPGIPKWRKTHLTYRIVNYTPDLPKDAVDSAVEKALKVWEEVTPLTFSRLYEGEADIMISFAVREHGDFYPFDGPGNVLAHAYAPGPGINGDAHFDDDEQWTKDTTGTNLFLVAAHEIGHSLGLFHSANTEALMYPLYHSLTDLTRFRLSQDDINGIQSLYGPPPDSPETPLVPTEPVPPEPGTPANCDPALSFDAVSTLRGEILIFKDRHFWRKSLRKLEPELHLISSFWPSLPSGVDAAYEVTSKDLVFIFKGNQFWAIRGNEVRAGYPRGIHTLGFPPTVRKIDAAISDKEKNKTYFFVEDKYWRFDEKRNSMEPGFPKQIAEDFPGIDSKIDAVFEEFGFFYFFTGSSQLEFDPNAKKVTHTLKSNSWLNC
Sequence of MMP-9 (P14780 94-707, species assumed): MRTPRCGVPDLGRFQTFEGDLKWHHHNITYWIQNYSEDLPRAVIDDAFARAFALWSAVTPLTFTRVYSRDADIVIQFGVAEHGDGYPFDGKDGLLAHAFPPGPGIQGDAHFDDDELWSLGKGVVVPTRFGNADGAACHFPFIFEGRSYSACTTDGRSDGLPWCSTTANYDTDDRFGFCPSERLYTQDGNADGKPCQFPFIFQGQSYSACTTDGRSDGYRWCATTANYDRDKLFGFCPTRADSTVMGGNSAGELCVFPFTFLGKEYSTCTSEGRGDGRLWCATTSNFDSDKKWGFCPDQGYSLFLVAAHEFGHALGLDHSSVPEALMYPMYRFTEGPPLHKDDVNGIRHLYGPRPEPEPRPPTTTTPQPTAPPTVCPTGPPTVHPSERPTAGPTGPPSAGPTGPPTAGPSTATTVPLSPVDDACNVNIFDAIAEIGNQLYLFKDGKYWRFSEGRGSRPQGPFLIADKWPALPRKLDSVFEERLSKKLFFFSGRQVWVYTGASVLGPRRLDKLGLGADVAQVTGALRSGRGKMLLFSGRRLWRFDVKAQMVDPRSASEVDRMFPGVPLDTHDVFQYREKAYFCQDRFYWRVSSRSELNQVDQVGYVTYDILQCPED
Sequence of MMP-8 (P22894 101-467, species assumed): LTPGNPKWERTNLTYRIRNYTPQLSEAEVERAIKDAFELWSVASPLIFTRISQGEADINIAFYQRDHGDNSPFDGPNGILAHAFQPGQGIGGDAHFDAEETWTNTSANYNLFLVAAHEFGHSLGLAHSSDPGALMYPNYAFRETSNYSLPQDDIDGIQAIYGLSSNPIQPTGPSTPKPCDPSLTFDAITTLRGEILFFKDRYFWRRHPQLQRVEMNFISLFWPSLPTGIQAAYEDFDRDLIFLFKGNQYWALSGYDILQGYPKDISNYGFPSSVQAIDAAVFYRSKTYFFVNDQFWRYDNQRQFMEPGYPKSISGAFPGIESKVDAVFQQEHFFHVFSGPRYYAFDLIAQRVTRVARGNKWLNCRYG

IC50 (MMP-1) [µM]	IC50 (MMP-3) [µM]	IC50 (MMP-9) [µM]	IC50 (MMP-8) [µM]	Compound	lung colonization of M24 cells (M24 cells)	cell adhesion to type I collagen, vitronectin, and fibronectin [1]
1	150	30	1	CC(C)C[C@@H](NC(=O)[C@@H]1CCCN1C(=O)CNC(=O)c1ccc(N)cc1)C(=O)N[C@H](C)C(=O)NO [MMP inhibitor I] (H-[4Abz]GP[dL][dA]-{NHOH})	–	–
–	–	–	–	contortrostatin	inhibits lung colonization	inhibit
